Results from PMC8746798, “Evaluation of 2-Thioxoimadazolidin-4-one Derivatives as Potent Anti-Cancer Agents through Apoptosis Induction and Antioxidant Activation: In Vitro and In Vivo Approaches” (Molecules, 2021).

Columns and labels:
[1] = system: HepG2 cells; test: DNA content flow cytometry cell cycle analysis; assay type: cell-based, human; settings: HepG2, IC50 = 0.017 μM, 48 h; control 12.26%
From the text: Apoptotic cells were quantified using double staining with annexin V and PI on flow cytometry. […] The detailed methodology of flow cytometric analysis (annexin V/PI differential apoptosis/necrosis, DNA content–flow cytometry aided cell cycle) is provided in the Supplementary Materials.
Supplementary materials for detailed methodology
Evaluation of 2-thioxoimadazolidin-4-one Derivatives as Potent
Anti-cancer Agents Through Apoptosis Induction and Antioxi-dant Activation: In vitro and In vivo Approaches
Mohamed S. Nafie 1,*, Ahmed I. Khodair 2,*, Hebat Allah Y. Hassan 3, Noha M. Abd El-Fadeal 4, Hanin A. Bogari 5 , Sameh S. Elhady 6 and Safwat A. Ahmed 3,7,* […]
Apoptosis and necrosis cell populations are determined using Annexin V-FITC apop-tosis detection kit (Abcam Inc., Cambridge Science Park, Cambridge, UK) coupled with 2 fluorescent channels flowcytometry. […]
Then, cells are incubated in dark with 0.5 ml of Annexin V-FITC/PI solution for 30 min in dark at room temperature according to manufacturer protocol. After staining, cells are injected via ACEA Novocyte™ flowcytometer (ACEA Biosciences Inc., San Diego, CA, USA) and analyzed for FITC and PI fluorescent signals using FL1 and FL2 signal detector, respectively (λex/em 488/530 nm for FITC and λex/em 535/617 nm for PI). […]

[2] = Hepatic oxidant and antioxidant assessment; assay type: in vivo; settings: liver homogenate, SEC-bearing mice, 6 mg/kg BW
Description: (§1) We randomly divided 50 mice into groups 5 groups (10 mice in each group): normal control (I) (mice injected intraperitoneally with the same volume of solvent for 14 consecutive days); group II, a group of normal mice treated with compound 4 (mice injected intraperitoneally with newly produced compound 4 at a dose of 6 mg/kg per day for 14 days); group III, solid tumor group (mice were implanted with solid tumor); group IV, group were treated with 5-FU (after 10 days of tumor implantation, mice were treated with 6 mg/kg only once); and group V, solid tumor group were treated with compound 4 (after 10 days of tumor implantation, mice were treated with 6 mg/kg only once). after one day of the previous treatment, 10 mice from each group were sacrificed and tumor weight, tumor volume (length and width of solid femoral tumor), blood and liver samples were obtained from each group. A portion of each blood sample taken was used for complete blood count (CBC) and the rest was centrifuged to obtain the serum. Serum was used for biochemical parameter estimation. The livers were rapidly dissected, washed with isotonic saline, and dried. The experiment design is summarized in Supplementary Figure S3.
In liver tissue homogenate, a standard commercial kit (BioDiagnostic, Cairo, Egypt) was used to evaluate oxidation and antioxidant parameters according to its methodology, as previously published in Nafie et al., 2020 [57]. Lipid peroxidation (MDA) and nitric oxide (NO) are oxidants, while reduced glutathione (GSH), catalase (CAT), and superoxide dismutase (SOD) are antioxidants.

[3] = Histopathological examination of liver and kidney (H&E); assay type: in vivo, mice
Description: as §1
Complete blood counts (CBCs) were counted using an AbbottCELLDYN®1800 Automated Hematology Analyzer (Abbott Park, IL, USA) equipped with an off-the-shelf kit (Abbott Laboratories, Abbott Park, IL, USA). For microscopic histopathological examination, tumor and kidney slices were maintained in 10% formalin, dehydrated with graduated alcohol, embedded in paraffin sections, H&E stained, and hematoxylin stained.
Specimens from mice liver cells were fixed in 10% formalin saline. Then, the samples were dehydrated with ascending series of ethanol and embedded in paraffin. A […] thick section was stained with hematoxylin and eosin and examined under a light microscope.

[4] = system: HepG2 cells; test: Colony forming assay; assay type: cell-based, human; settings: HepG2, 100 μM
Description: HepG2 cells were allowed to attach to form a complete monolayer after seeding 200 cells per well (6-well plate) for 24 h. Five concentrations of compound 4 (0.01, 0.1, 1, 10, 100 µM) were added to the cultured cells, and cells were incubated for 48 h, followed by washing with PBS. After 7 days of incubation, the colonies were fixed and stained with 1% crystal violet in methanol for 3 h. Finally, the crystal violet stain was used for 20 min to stain and count the cells using the light microscope.

Structure (SMILES): O=C1NC(=S)N(c2ccc(O)cc2)/C1=C/c1cccs1 [Compound 4, (E)-1-(4-Hydroxyphenyl)-5-(thiophen-2-ylmethylene)-2-thioxoimidazolidin-4-one]
- % cells in G2/M phase [1]: 21.15%
- GSH (antioxidant) ([2]; SEC control 18.23): 39.27 mg/g Tissue
- CAT (antioxidant) ([2]; SEC control 21.69): 46.9 U/g Tissue
- SOD (antioxidant) ([2]; SEC control 27.36): 48.69 U/g Tissue
- NO (oxidative stress) ([2]; SEC control 79.69): 42.38 U/g Tissue
- MDA (oxidative stress) ([2]; SEC control 98.39, n = 6): 73.36 nmol/g Tissue
- kidney histopathology ([3]; SEC-bearing mice treated): almost normal, intact renal corpuscles and tubules
- liver histopathology ([3]; SEC-bearing mice treated): liver lobules looking normal
- liver histopathology ([3]; normal mice treated): normal-looking liver lobules; some hepatocytes showed a hydropic degeneration and a balloon degeneration
- number of colonies ([4]; 464 in control): 136
- inhibition at 100 µM ([4]; Homo sapiens, 48 h treatment, read-out: colony inhibition rate): ~88%
